Experimental findings from US11731944B2, “SARS-CoV-2 inhibitors for treating coronavirus infections” (priority 2021, dated 2023) are described below.

Broadly, the IC50 is the concentration needed to halve the response being measured.

For the first assay, the target named is SARS-CoV-2 MPRO (Severe acute respiratory syndrome coronavirus 2 (2019-nCoV) (SARS-CoV-2), UniProt P0DTD1). As to the kind of experiment: SARS-CoV-2 Mpro enzymatic assay (FRET substrate cleavage). In kind it is biochemical. The following applies: C-His6-tagged SARS-CoV-2 MPRO 25 nM, 30 min pre-incubation at RT, 60 min at 30° C., 10 doses from 25 μM; read-out: M pro IC50.
Turning to `C[C@@](C(=O)NC1CCOCC1)(c1cncnc1)N(C(=O)[C@H](F)Cl)c1ccc(OC(F)(F)C(F)(F)F)cc1` [Example 32b], the concentration for half-maximal inhibition (IC50) lay in the range of 1000 to 10000 nM.

Take `C[C@@](C(=O)NC1CCC(F)(F)CC1)(c1cncnc1)N(C(=O)[C@H](F)Cl)c1ccc(SC(F)(F)F)cc1` [Example 33b]: the IC50 fell in the range of 100 to 1000 nM.

In the case of `C[C@](C(=O)NC1CCOCC1)(c1cncnc1)N(C(=O)[C@H](F)Cl)c1ccc(SC(F)(F)F)cc1` [Example 34a], the half-maximal inhibitory concentration (IC50) is less than 100 nM.

With `C[C@@](C(=O)NC1CCOCC1)(c1cncnc1)N(C(=O)[C@H](F)Cl)c1ccc(SC(F)(F)F)cc1` [Example 34b], the half-maximal inhibitory concentration (IC50) is more than 10000 nM.

As to `C[C@](C(=O)NCCc1cccc(F)c1)(c1cncnc1)N(C(=O)[C@H](F)Cl)c1ccc(OC(F)(F)F)cc1` [Example 36a], the IC50 was less than 100 nM.

Consider `C[C@@](C(=O)NCCc1cccc(F)c1)(c1cncnc1)N(C(=O)[C@H](F)Cl)c1ccc(OC(F)(F)F)cc1` [Example 36b], for which the IC50 was more than 10000 nM.

`CC1(C)COCC[C@H]1NC(=O)[C@@](C)(c1cncnc1)N(C(=O)[C@H](F)Cl)c1ccc(OC(F)(F)F)cc1` [Example 76a]: the IC50 is less than 100 nM.

As for `CC1(C)COCC[C@@H]1NC(=O)[C@@](C)(c1cncnc1)N(C(=O)[C@H](F)Cl)c1ccc(OC(F)(F)F)cc1` [Example 76b], the concentration for half-maximal inhibition (IC50) is 100 to 1000 nM.

For `CC1(C)C[C@@H](NC(=O)[C@@](C)(c2cncnc2)N(C(=O)[C@H](F)Cl)c2ccc(OC(F)(F)F)cc2)CCO1` [Example 77b], the concentration for half-maximal inhibition (IC50) was less than 100 nM.

Regarding `C[C@](C(=O)NC1CCC(F)(F)CC1)(c1cncnc1)N(C(=O)[C@H](F)Cl)c1ccc(OC(F)(F)C(F)(F)F)cc1` [Example 90a], the concentration for half-maximal inhibition (IC50) was less than 100 nM.

Take `C[C@@](C(=O)NC1CCC(F)(F)CC1)(c1cncnc1)N(C(=O)[C@H](F)Cl)c1ccc(OC(F)(F)C(F)(F)F)cc1` [Example 90b]: the 50% inhibitory concentration (IC50) was 100 to 1000 nM.

In the case of `C[C@](C(=O)NC1CCC(F)(F)CC1)(c1cncnc1)N(C(=O)[C@H](F)Cl)c1ccc(OC(F)(F)Cl)cc1` [Example 92a], the concentration for half-maximal inhibition (IC50) is less than 100 nM.

With `C[C@@](C(=O)NC1CCC(F)(F)CC1)(c1cncnc1)N(C(=O)[C@H](F)Cl)c1ccc(OC(F)(F)Cl)cc1` [Example 92b], the IC50 lay in the range of 100 to 1000 nM.

Consider `C[C@](C(=O)NC1CCC(F)(F)CC1)(c1cncc(F)c1)N(C(=O)[C@H](F)Cl)c1ccc(SC(F)(F)F)cc1` [Example 95a], for which the IC50 was less than 100 nM.

Take `C[C@@](C(=O)NC1CCC(F)(F)CC1)(c1cncc(F)c1)N(C(=O)[C@H](F)Cl)c1ccc(SC(F)(F)F)cc1` [Example 95b]: the IC50 was 1000 to 10000 nM.

As to `C[C@](C(=O)NC1CCOCC1)(c1cncc(F)c1)N(C(=O)[C@H](F)Cl)c1ccc(S(F)(F)(F)(F)F)cc1` [Example 97a], the IC50 was less than 100 nM.

`C[C@@](C(=O)NC1CCOCC1)(c1cncc(F)c1)N(C(=O)[C@H](F)Cl)c1ccc(S(F)(F)(F)(F)F)cc1` [Example 97b]: the IC50 is more than 10000 nM.

As for `C[C@](C(=O)NC1CCOCC1)(c1cncc(F)c1)N(C(=O)[C@H](F)Cl)c1ccc(OC(F)(F)Cl)cc1` [Example 98a], the IC50 was less than 100 nM.

As to `C[C@@](C(=O)NC1CCOCC1)(c1cncc(F)c1)N(C(=O)[C@H](F)Cl)c1ccc(OC(F)(F)Cl)cc1` [Example 98b], the concentration for half-maximal inhibition (IC50) lay in the range of 1000 to 10000 nM.

Turning to `C[C@](C(=O)NC1CCC(F)(F)CC1)(c1cncc(F)c1)N(C(=O)[C@H](F)Cl)c1ccc(OC(F)(F)Cl)cc1` [Example 99a], the IC50 is less than 100 nM.

Take `C[C@@](C(=O)NC1CCC(F)(F)CC1)(c1cncc(F)c1)N(C(=O)[C@H](F)Cl)c1ccc(OC(F)(F)Cl)cc1` [Example 99b]: the IC50 lay in the range of 1000 to 10000 nM.

Regarding `C[C@](C(=O)NC1CCC(F)(F)CC1)(c1cncnc1)N(C(=O)[C@H](F)Cl)c1ccc(-c2nccs2)cc1` [Example 100a], the IC50 is less than 100 nM.

Turning to `C[C@@](C(=O)NC1CCC(F)(F)CC1)(c1cncnc1)N(C(=O)[C@H](F)Cl)c1ccc(-c2nccs2)cc1` [Example 100b], the IC50 was in the range of 100 to 1000 nM.

`C[C@](C(=O)NC1CCOCC1)(c1cncnc1)N(C(=O)[C@H](F)Cl)c1ccc(-c2nccs2)cc1` [Example 101a]: the IC50 is less than 100 nM.

For the molecule `C[C@](C(=O)NC1CCC(F)(F)CC1)(c1cncc(F)c1)N(C(=O)[C@H](F)Cl)c1ccc(-c2nccs2)cc1` [Example 102a], the IC50 was less than 100 nM.

For the molecule `C[C@@](C(=O)NC1CCC(F)(F)CC1)(c1cncc(F)c1)N(C(=O)[C@H](F)Cl)c1ccc(-c2nccs2)cc1` [Example 102b], the IC50 lay within 100 to 1000 nM.

On to `C[C@](C(=O)NC1CCOCC1)(c1cncc(F)c1)N(C(=O)[C@H](F)Cl)c1ccc(-c2nccs2)cc1` [Example 103a], for which the IC50 is less than 100 nM.

Take `C[C@@](C(=O)NC1CCOCC1)(c1cncc(F)c1)N(C(=O)[C@H](F)Cl)c1ccc(-c2nccs2)cc1` [Example 103b]: the IC50 is more than 10000 nM.

With `C[C@](C(=O)NC1CCC(F)(F)CC1)(c1cccnc1)N(C(=O)[C@H](F)Cl)c1ccc(SC(F)(F)F)cc1` [Example 104a], the half-maximal inhibitory concentration (IC50) was less than 100 nM.

Turning to `C[C@@](C(=O)NC1CCC(F)(F)CC1)(c1cccnc1)N(C(=O)[C@H](F)Cl)c1ccc(SC(F)(F)F)cc1` [Example 104b], the half-maximal inhibitory concentration (IC50) was 1000 to 10000 nM.

With `C[C@](C(=O)NC1CCOCC1)(c1cccnc1)N(C(=O)[C@H](F)Cl)c1ccc(SC(F)(F)F)cc1` [Example 105a], the IC50 was less than 100 nM.

With `C[C@@](C(=O)NC1CCOCC1)(c1cccnc1)N(C(=O)[C@H](F)Cl)c1ccc(SC(F)(F)F)cc1` [Example 105b], the half-inhibitory concentration (IC50) was more than 10000 nM.

Turning to `C[C@](C(=O)NC1CCC2(CC1)COC2)(c1cncnc1)N(C(=O)[C@H](F)Cl)c1ccc(OC(F)(F)F)cc1` [Example 107a], the IC50 was less than 100 nM.

On to `C[C@](C(=O)NC1CCOCC1)(c1cncnc1)N(C(=O)[C@H](F)Cl)c1ccc(C(F)(F)C(F)(F)F)cc1` [Example 108a], for which the 50% inhibitory concentration (IC50) lay in the range of 100 to 1000 nM.

With `C[C@@](C(=O)NC1CCOCC1)(c1cncnc1)N(C(=O)[C@H](F)Cl)c1ccc(C(F)(F)C(F)(F)F)cc1` [Example 108b], the half-maximal inhibitory concentration (IC50) was more than 10000 nM.

Turning to `C[C@](C(=O)Nc1ccc(Cl)cc1F)(c1cncnc1)N(C(=O)[C@H](F)Cl)c1ccc(OC(F)(F)F)cc1` [Example 110a], the half-inhibitory concentration (IC50) was less than 100 nM.

Consider `C[C@@](C(=O)Nc1ccc(Cl)cc1F)(c1cncnc1)N(C(=O)[C@H](F)Cl)c1ccc(OC(F)(F)F)cc1` [Example 110b], for which the IC50 lay in the range of 1000 to 10000 nM.

For `C[C@](C(=O)NC1CCOCC1)(c1cccnc1)N(C(=O)[C@H](F)Cl)c1ccc(OC(F)(F)Cl)cc1` [Example 111a], the IC50 was less than 100 nM.

Take `C[C@@](C(=O)NC1CCOCC1)(c1cccnc1)N(C(=O)[C@H](F)Cl)c1ccc(OC(F)(F)Cl)cc1` [Example 111b]: the IC50 is more than 10000 nM.

Turning to `C[C@](C(=O)NC1CCC(F)(F)CC1)(c1cncnc1)N(C(=O)[C@H](F)Cl)c1cccc(OC(F)(F)F)c1` [Example 112a], the IC50 is 100 to 1000 nM.

Still in this assay, the particulars now being: M pro IC50, C-His6-tagged SARS-CoV-2 MPRO 25 nM, 30 min pre-incubation at RT, 60 min at 30° C., 10 doses from 25 μM.
The molecule `C[C@](C(=O)NC1CCOCC1)(c1cncnc1)N(C(=O)[C@H](F)Cl)c1ccc(OC(F)(F)C(F)(F)F)cc1` [Example 32a] came in with a half-maximal inhibitory concentration (IC50) of less than 100 nM.

Molecule `C[C@](C(=O)N[C@@H]1CC[C@H](NC(=O)C(F)(F)F)C1)(c1cncc(F)c1)N(C(=O)[C@H](F)Cl)c1ccc(OC(F)(F)F)cc1` [Example 109a] returned an IC50 of less than 100 nM.

The molecule `C[C@@](C(=O)N[C@@H]1CC[C@H](NC(=O)C(F)(F)F)C1)(c1cncc(F)c1)N(C(=O)[C@H](F)Cl)c1ccc(OC(F)(F)F)cc1` [Example 109b] came in with a concentration for half-maximal inhibition (IC50) of 1000 to 10000 nM.
